Patent US20140120083A1, “TREATMENT OF CANCERS USING PI3 KINASE ISOFORM MODULATORS” (INFINITY PHARMACEUTICALS, INC., priority 2012, published 2014)
Values joined by “and” are separate entries in the source; they are usually repeats but may differ in a detail not shown here. Identical values can stand only once. Like-named read-outs stand apart in the source and are kept apart here. Marks after values point to notes of the source that are not given here.

What was measured:
[1] = Plasma protein binding, rat; format: in vitro ADME; conditions: 100 μM (41700 ng/mL)
Excerpt: […]. […] […].

Pharmacokinetics, mouse = format: in vivo, BALB/c mice
Pharmacokinetics, dog = format: in vivo, Beagle dogs; conditions: for Foral: AUC0-last; for clearance / Vd / AUC(0-inf) / AUC(0-t) / Cmax / half-life / Tmax: beagle, in vivo; for Vd: read-out: Vss; for AUC(0-t): read-out: AUC0-last (AUC0-24)
[2] = Tissue distribution of radiolabelled compound; format: in vivo; conditions: rat, radiolabelled Compound 292, majority of tissues
Caco-2 cell monolayers = test: Membrane permeability, Caco-2 cell monolayers; format: in vitro ADME, human
human P-glycoprotein = biological target: T1, human P-glycoprotein (Homo sapiens, UniProt P08183); test: Interaction with P-glycoprotein, Caco-2; format: in vitro ADME; conditions: Caco-2 cell monolayers
T1 construct: endogenous in cells; host or cells: Caco-2

[3] = Clinical study in healthy adult subjects, pharmacokinetics; format: in vivo, human; conditions: for AUC(0-24) / AUC(0-inf) / Cmax / T1/2 / half-life / AUC: mean (% CV); for AUC: read-out: AUC(0-tau)
PI3K-δ and PI3K-γ = test: Phase 1 study in advanced hematologic malignancies, pharmacodynamics; format: in vivo, human
Description: PK and PD markers were evaluated after the first dose (e.g., 8 mg BID) and at steady state. PD activity (PI3K inhibition) in whole blood was evaluated using a basophil activation assay which measured reduction in CD63 expression on the surface of basophils following ex vivo stimulation.

[4] = In vitro genetic toxicity studies
[5] = 13-week repeat-dose safety study, monkey
[6] = Embryo/fetal developmental toxicity, rat
central nervous system = test: Neurofunctional study (FOB, motor activity); conditions: male rats
[7] = Embryo/fetal developmental toxicity, rabbit
[8] = po, 5 mg/kg, 5 mg/kg (study with 0.5 mg/kg IV)
[9] = po, 5 mg/kg, 5 mg/kg (study with 1 mg/kg IV)
[10] = DDI portion, 200 mg q12h ketoconazole
[11] = human, plasma, oral, 1 mg, 1 mg Q12 h, Day 1
[12] = human, plasma, oral, 1 mg, 1 mg Q12 h, Day 14
[13] = human, plasma, oral, 2 mg, 2 mg Q12 h, Day 1
[14] = human, plasma, oral, 2 mg, 2 mg Q12 h, Day 14
[15] = human, plasma, oral, 5 mg, 5 mg Q12 h, Day 1
[16] = human, plasma, oral, 5 mg, 5 mg Q12 h, Day 14
[17] = human, plasma, oral, 10 mg, 10 mg Q24 h, Day 1
[18] = human, plasma, oral, 10 mg, 10 mg Q24 h, Day 14

T1 sequence (P08183 whole entry): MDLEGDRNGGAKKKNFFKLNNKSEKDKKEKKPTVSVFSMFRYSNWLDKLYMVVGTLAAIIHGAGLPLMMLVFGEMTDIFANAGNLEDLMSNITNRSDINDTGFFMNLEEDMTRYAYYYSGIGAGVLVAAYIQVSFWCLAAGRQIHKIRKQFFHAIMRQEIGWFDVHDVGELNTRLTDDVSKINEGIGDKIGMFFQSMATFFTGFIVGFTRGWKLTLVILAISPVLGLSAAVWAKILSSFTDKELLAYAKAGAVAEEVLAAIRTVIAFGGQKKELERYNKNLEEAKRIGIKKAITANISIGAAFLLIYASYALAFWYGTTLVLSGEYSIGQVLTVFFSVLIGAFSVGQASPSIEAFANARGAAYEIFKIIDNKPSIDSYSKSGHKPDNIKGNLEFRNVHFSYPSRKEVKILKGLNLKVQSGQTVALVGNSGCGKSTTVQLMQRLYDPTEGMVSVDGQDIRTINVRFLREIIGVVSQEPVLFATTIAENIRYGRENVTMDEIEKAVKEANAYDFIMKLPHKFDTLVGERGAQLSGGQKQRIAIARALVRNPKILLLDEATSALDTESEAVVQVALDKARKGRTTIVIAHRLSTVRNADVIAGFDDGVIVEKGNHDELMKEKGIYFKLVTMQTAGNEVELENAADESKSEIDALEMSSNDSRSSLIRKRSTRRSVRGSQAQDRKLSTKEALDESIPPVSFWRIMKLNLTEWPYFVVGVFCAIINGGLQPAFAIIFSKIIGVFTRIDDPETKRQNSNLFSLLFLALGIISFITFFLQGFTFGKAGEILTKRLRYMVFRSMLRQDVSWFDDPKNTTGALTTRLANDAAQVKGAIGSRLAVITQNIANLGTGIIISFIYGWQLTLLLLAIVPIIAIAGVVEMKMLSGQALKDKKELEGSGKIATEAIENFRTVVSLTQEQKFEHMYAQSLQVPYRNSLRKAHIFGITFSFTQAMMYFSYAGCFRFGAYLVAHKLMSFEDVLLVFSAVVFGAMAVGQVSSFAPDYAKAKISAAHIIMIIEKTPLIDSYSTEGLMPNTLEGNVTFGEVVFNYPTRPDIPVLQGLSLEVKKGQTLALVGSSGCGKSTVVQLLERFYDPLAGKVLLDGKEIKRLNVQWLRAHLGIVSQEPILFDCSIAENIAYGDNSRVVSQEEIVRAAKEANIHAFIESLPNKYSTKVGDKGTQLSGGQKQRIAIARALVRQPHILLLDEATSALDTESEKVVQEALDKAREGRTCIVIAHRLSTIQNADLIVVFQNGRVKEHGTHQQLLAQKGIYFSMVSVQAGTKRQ

In the case of `C[C@H](Nc1ncnc2[nH]cnc12)c1cc2cccc(Cl)c2c(=O)n1-c1ccccc1` [Compound 292], the protein bound [1] is reported as 85.8%, the half-life (Pharmacokinetics, mouse) is reported as “less than 2 hrs” and the AUC(0-inf) (Pharmacokinetics, mouse; BALB/c, in vivo, IV, 10 mg/kg) is reported as 1900 ng·h/mL. For the same compound, the AUC(0-t) (Pharmacokinetics, mouse; BALB/c, in vivo, IV, 10 mg/kg) was 1900 ng·h/mL, the Cmax (Pharmacokinetics, mouse; BALB/c, in vivo, IV, 10 mg/kg) was 5560 ng/mL and the Tmax (Pharmacokinetics, mouse; BALB/c, in vivo, IV, 10 mg/kg) was 4.98 min. It also gave a clearance (Pharmacokinetics, mouse; BALB/c, in vivo, IV, 10 mg/kg) of 87.5 mL/min/kg, a half-life (Pharmacokinetics, mouse; BALB/c, in vivo, IV, 10 mg/kg, read-out: T1/2 (converted)) of 0.22 h and a Vd (Pharmacokinetics, mouse; BALB/c, in vivo, IV, 10 mg/kg, read-out: Vss) of 1.14 L/kg. The AUC(0-t) (Pharmacokinetics, mouse; BALB/c, in vivo, PO, 10 mg/kg) was 137 ng·h/mL, the Cmax (Pharmacokinetics, mouse; BALB/c, in vivo, PO, 10 mg/kg) was 390 ng/mL and the Tmax (Pharmacokinetics, mouse; BALB/c, in vivo, PO, 10 mg/kg) was 4.98 min. For the same compound, the Foral (Pharmacokinetics, mouse; PO, 10 mg/kg, calculated using AUC0-last) was 7% and 7^i %, the Foral (Pharmacokinetics, dog; PO, 5 mg/kg, 0.5 mg/kg IV dose as reference) was 97^g,i % and the Foral (Pharmacokinetics, dog; PO, 5 mg/kg, 1 mg/kg IV dose as reference) was 40% and 40^h,i %. For the same compound, the clearance (Pharmacokinetics, dog; IV, 0.5 mg/kg) was 0.85 mL/min/kg, the Vd (Pharmacokinetics, dog; IV, 0.5 mg/kg) was 0.13 L/kg and the clearance (Pharmacokinetics, dog; IV, 1 mg/kg) was 3.23 mL/min/kg. The Vd (Pharmacokinetics, dog; IV, 1 mg/kg) was 0.493 L/kg, the AUC(0-inf) (Pharmacokinetics, dog; iv, 0.5 mg/kg) was 11900 ng·h/mL and the AUC(0-t) (Pharmacokinetics, dog; iv, 0.5 mg/kg, IV, 0.5 mg/kg) was 11700 ng·h/mL. The Cmax (Pharmacokinetics, dog; iv, 0.5 mg/kg, IV, 0.5 mg/kg, read-out: Cmax (reported value is C0)) was 4410 ng/mL, the half-life (Pharmacokinetics, dog; iv, 0.5 mg/kg, IV, 0.5 mg/kg, read-out: T1/2 (converted)) was 2 h and the AUC(0-inf) (Pharmacokinetics, dog; iv, 1 mg/kg) was 6270 ng·h/mL. The AUC(0-t) (Pharmacokinetics, dog; iv, 1 mg/kg, IV, 1 mg/kg) was 5880 ng·h/mL, the Cmax (Pharmacokinetics, dog; iv, 1 mg/kg, IV, 1 mg/kg, read-out: Cmax (reported value is C0)) was 1800 ng/mL and the half-life (Pharmacokinetics, dog; iv, 1 mg/kg, IV, 1 mg/kg, read-out: T1/2 (converted)) was 1.83 h. The AUC(0-inf) (Pharmacokinetics, dog; [8]) was 107000 ng·h/mL, the Tmax (Pharmacokinetics, dog; [8]) was 3 h and the AUC(0-inf) (Pharmacokinetics, dog; [9]) was 13800 ng·h/mL. It also gave a Tmax (Pharmacokinetics, dog; [9]) of 1.33 h, an AUC(0-t) (Pharmacokinetics, dog; po, 5 mg/kg, PO, 5 mg/kg (study with 0.5 mg/kg IV)) of 105000 ng·h/mL and a Cmax (Pharmacokinetics, dog; po, 5 mg/kg, PO, 5 mg/kg (study with 0.5 mg/kg IV), read-out: Cmax) of 9600 ng/mL. It also gave a half-life (Pharmacokinetics, dog; po, 5 mg/kg, PO, 5 mg/kg (study with 0.5 mg/kg IV), read-out: T1/2 (converted)) of 3.9 h, an AUC(0-t) (Pharmacokinetics, dog; po, 5 mg/kg, PO, 5 mg/kg (study with 1 mg/kg IV)) of 10900 ng·h/mL and a Cmax (Pharmacokinetics, dog; po, 5 mg/kg, PO, 5 mg/kg (study with 1 mg/kg IV), read-out: Cmax) of 2370 ng/mL. For the same compound, the half-life (Pharmacokinetics, dog; po, 5 mg/kg, PO, 5 mg/kg (study with 1 mg/kg IV), read-out: T1/2 (converted)) was 3.15 h, the half-life (Pharmacokinetics, dog; read-out: half-life (converted)) was 2 h and the “radioactivity in tissues at 24 hr” value [2] was “without quantifiable levels of radioactivity”. For the same compound, the cell membrane permeability (Caco-2 cell monolayers) was “moderate”, the P-gp substrate (human P-glycoprotein) was “is a P-gp substrate” and the “inhibition of P-gp transport” value (human P-glycoprotein) was “has the potential to inhibit the active transport of other P-gp substrates”. The “AUC(0-24)” value ([3]; 1 mg single dose) was 149 (67) ng * hr/mL, the “AUC(0-inf)” value ([3]; 1 mg single dose) was 151 (68) ng * hr/mL and the Cmax ([3]; 1 mg single dose) was 43.4 (31) ng/mL. The T1/2 ([3]; 1 mg single dose) was 3.52 (29) hr, the “AUC(0-24)” value ([3]; 2 mg single dose) was 289 (43) ng * hr/mL and the “AUC(0-inf)” value ([3]; 2 mg single dose) was 296 (44) ng * hr/mL. The Cmax ([3]; 2 mg single dose) was 78.8 (16) ng/mL, the T1/2 ([3]; 2 mg single dose) was 5.43 (25) hr and the “AUC(0-24)” value ([3]; 5 mg single dose) was 733 (5) ng * hr/mL. The “AUC(0-inf)” value ([3]; 5 mg single dose) was 743 (5) ng * hr/mL, the Cmax ([3]; 5 mg single dose) was 246 (16) ng/mL and the T1/2 ([3]; 5 mg single dose) was 5.43 (10) hr. The “AUC(0-24)” value ([3]; 10 mg single dose) was 891 (14) ng * hr/mL, the “AUC(0-inf)” value ([3]; 10 mg single dose) was 914 (14) ng * hr/mL and the Cmax ([3]; 10 mg single dose) was 454 (40) ng/mL. The T1/2 ([3]; 10 mg single dose) was 9.47 (38) hr, the “AUC(0-24)” value ([3]; 20 mg single dose) was 2193 (16) ng * hr/mL and the “AUC(0-inf)” value ([3]; 20 mg single dose) was 2250 (16) ng * hr/mL. The Cmax ([3]; 20 mg single dose) was 997 (32) ng/mL, the T1/2 ([3]; 20 mg single dose) was 7.79 (51) hr and the “AUC(0-24)” value ([3]; 30 mg single dose) was 3263 (38) ng * hr/mL. The “AUC(0-inf)” value ([3]; 30 mg single dose) was 3395 (38) ng * hr/mL, the Cmax ([3]; 30 mg single dose) was 1140 (38) ng/mL and the T1/2 ([3]; 30 mg single dose) was 8.12 (18) hr. For the same compound, the “increase of AUC0-inf in the presence of ketoconazole” value [3, 10] was roughly 295%, the “increase of AUC0-last in the presence of ketoconazole” value [3, 10] was roughly 285% and the “increase of Cmax in the presence of ketoconazole” value [3, 10] was “approximately 66%”. For the same compound, the “excretion of unchanged compound in urine” value ([3]; healthy subjects) was < 2 % of the administered dose, the accumulation ([3]; healthy subjects, 14 days of Q12 h oral administration) was “less than 2 fold” and the half-life [3, 11] was 3.46 h. It also gave an AUC [3, 11] of 124 ng·h/mL, a Cmax ([3]; human, plasma, oral, 1 mg, 1 mg Q12 h, Day 1, read-out: Cmax) of 49.1 ng/mL and a half-life [3, 12] of 6.46 h. The AUC [3, 12] was 199 ng·h/mL, the Cmax ([3]; human, plasma, oral, 1 mg, 1 mg Q12 h, Day 14, read-out: Cmax) was 66.8 ng/mL and the half-life [3, 13] was 6.34 h. It also gave an AUC [3, 13] of 290 ng·h/mL, a Cmax ([3]; human, plasma, oral, 2 mg, 2 mg Q12 h, Day 1, read-out: Cmax) of 101 ng/mL and a half-life [3, 14] of 9.75 h. The AUC [3, 14] was 524 ng·h/mL, the Cmax ([3]; human, plasma, oral, 2 mg, 2 mg Q12 h, Day 14, read-out: Cmax) was 140 ng/mL and the half-life [3, 15] was 5.76 h. It also gave an AUC [3, 15] of 774 ng·h/mL, a Cmax ([3]; human, plasma, oral, 5 mg, 5 mg Q12 h, Day 1, read-out: Cmax) of 257 ng/mL and a half-life [3, 16] of 8.32 h. For the same compound, the AUC [3, 16] was 1290 ng·h/mL, the Cmax ([3]; human, plasma, oral, 5 mg, 5 mg Q12 h, Day 14, read-out: Cmax) was 355 ng/mL and the half-life [3, 17] was 6 h. For the same compound, the AUC [3, 17] was 1530 ng·h/mL, the Cmax ([3]; human, plasma, oral, 10 mg, 10 mg Q24 h, Day 1, read-out: Cmax) was 553 ng/mL and the half-life [3, 18] was 11.7 h. For the same compound, the AUC [3, 18] was 2230 ng·h/mL, the Cmax ([3]; human, plasma, oral, 10 mg, 10 mg Q24 h, Day 14, read-out: Cmax) was 605 ng/mL and the AUC(0-t) ([3]; human, plasma, healthy subjects, 5 mg BID, 14 days of oral dosing, read-out: mean AUC0-24 hr) was 2580 ng·h/mL. The “AKT phosphorylation in CLL/SLL cells” value (PI3K-δ and PI3K-γ; flow cytometry, after one dose (25 mg)) was “rapid and sustained inhibition”, the “doses achieving complete inhibition of PI3K-δ” value (PI3K-δ and PI3K-γ; patients) was no less than 15 mg BID and the “doses increasingly suppressing PI3K-γ” value (PI3K-δ and PI3K-γ; patients) was no less than 25 mg BID. For the same compound, the genetic toxicity [4] was “no genetic toxicity”, the NOAEL ([5]; 13-week monkey study, oral gavage) was 60 mg/m^2/day and the NOAEL at 13 weeks ([5]; both, cynomolgus monkey, in vivo, po) was 5 mg/kg/day. For the same compound, the “mean AUC0-24 hr at the NOAEL” value ([5]; monkey, Day 91, combined sexes) was 4015 ng·h/mL, the NOAEL ([6]; female, rat, in vivo) was 35 mg/kg/day and the “mean AUC0-24 hr at the NOAEL” value ([6]; pregnant rats, last day of dosing) was 62200 ng·h/mL. The “maternal and fetal NOAEL” value ([6]; rat) was 210 mg/m^2/day, the locomotor activity (central nervous system; 2 h after a 350 mg/kg oral dose) was “Significant decreases” and the “effects on the central nervous system” value (central nervous system; dose levels≦50 mg/kg) was “No effects”. The “qualitative or quantitative FOB parameters” value (central nervous system; single oral dose up to 350 mg/kg, up to 24 h post-dose) was “no changes”, the NOAEL ([7]; female, rabbit, in vivo) was 75 mg/kg/day and the “mean AUC0-24 hr at the NOAEL” value ([7]; pregnant rabbits, last day of dosing) was 66200 ng·h/mL. The “maternal and fetal NOAEL” value ([7]; rabbit) was 900 mg/m^2/day.
